Experiments:
[1] = mn = molality of the nth substance listed, in mol/kg; conditions: 101 kPa, Liquid; for speed of sound: Frequency=3 MHz, Sing-around technique in a fixed-path interferometer; for mass density: Vibrating tube method
[2] = 101 kPa, Liquid, Vibrating tube method

OC[C@H]1O[C@@](CO)(O[C@H]2O[C@H](CO)[C@@H](O)[C@H](O)[C@H]2O)[C@@H](O)[C@@H]1O [D-sucrose] + O
[1]
Conditions	mass density, 288.15 K [kg/m3]	mass density, 293.15 K [kg/m3]	mass density, 298.15 K [kg/m3]	mass density, 303.15 K [kg/m3]	mass density, 308.15 K [kg/m3]	speed of sound, 288.15 K [m/s]	speed of sound, 293.15 K [m/s]	speed of sound, 298.15 K [m/s]	speed of sound, 303.15 K [m/s]	speed of sound, 308.15 K [m/s]
m1 = 0.05	1006.43	1005.42	1004.16	1002.72	1001.27	1471.5	1487.4	1501.4	1513.5	1523.7
m1 = 0.15	1019	1017.99	1016.73	1015.24	1013.54	1481	1496.3	1509.9	1521.7	1531.8
m1 = 0.25	1030.99	1029.9	1028.58	1026.97	1025.28	1490.7	1505.7	1518.9	1530.3	1539.9
m1 = 0.35	1042.86	1041.71	1040.32	1038.71	1036.92	1500.5	1515	1527.7	1538.7	1548.2

O [water]
[2]
Conditions	mass density [kg/m3]
288.15 K	999.591
293.15 K	998.551
298.15 K	997.255
303.15 K	995.775
308.15 K	994.329

Reference: the NIST ThermoML archive (doi:10.1016/j.tca.2014.05.014)
